Experimental findings from US6355815B1, “Method of producing hydrogen peroxide and reaction promoters therefor” (Degussa AG, priority 1998, dated 2002) are described below.

Series [1] is described as follows: Oxidation stability of the quinone (oxygen, radical initiator, 150° C.). It counts as physicochemical. The conditions noted are these: 0.04 mole quinone in 100 ml 1,2-dichlorobenzene, 10 mg azo-bis-isobutyronitrile, excess oxygen, after 24 h.
Description: After the addition of 10 mg azo-bis-isobutyronitrile as radical initiator the mixture was agitated under excess of oxygen at 150° C. with a gassing agitator. After 24 h the quinone content was determined by chromatography.
Series [2] can be described thus: Maximum H2O2 capacity in continuous cyclic anthraquinone process test system. To be noted: compared with EAQ. How it is done: A working solution consisting of 75% by volume aromatic benzine (C9/C10-alkyl aromatic mixture), 25% by volume tris (2-ethylhexylphosphate), 0.11 mol/l 2-ethylanthraquinone, 0.29 mol/l 2-ethyltetrahydroanthraquinone, 0.13 mol/l 2-isohexylanthraquinone and 0.12 mol/l 2-isohexyltetrahydroanthraquinone was tested in a test system for the cyclic process of the anthraquinone method for producing hydrogen peroxide, consisting of the method steps of hydrogenation, oxidation, and extraction as well as of drying, regeneration and purification concerning the maximum H2O2 production capacity obtainable in continuous operation (g H2O2 produced per liter working solution). […]
The maximum H2O2 capacity of a working solution consisting of 75 by volume aromatic benzine (C9/C10-alkyl aromatic mixture), 25% by volume tris (2-ethylhexyl) phosphate, 0.12 mol/l 2-ethylanthraquinone, 0.28 mol/l 2-ethyltetrahydroanthraquinone, 0.13 mol/l 2-amylanthraquinone and 0.12 mol/l 2-amyltetrahydroanthraquinone was determined analogously to example 6. […]
The maximum H2O2 capacity of a working solution whose solvent system was based essentially on a C9/C10-aromatic benzine and tetrabutylurea (volumetric ratio AB:TBH approximately 3:1) was determined analogously to example 6 at a hydrogenation temperature of 60° C. […]

In the case of `CCc1ccc2c(c1)C(=O)c1ccccc1C2=O` [EAQ, 2-ethyl anthraquinone, reference compound], in series [1], the residual quinone content was found to be 90%. Take `CC(C)=CCCc1ccc2c(c1)C(=O)c1ccccc1C2=O` [IHEAQ, 2-(4-methyl-3-pentenyl) anthraquinone]: the “oxidative degradation under the conditions of the cyclic anthraquinone process” value in series [2] is on record as “not degraded oxidatively more than EAQ”. This compound yielded a residual quinone content in series [1] of 41%.
